We go through 16 compounds from paper PMC6017257, “Towards a Novel Class of Multitarget-Directed Ligands: Dual P2X7–NMDA Receptor Antagonists” (Molecules : A Journal of Synthetic Chemistry and Natural …, 2018).

Where two headings read alike, the source gives them in different places.

As a reminder, the melting point is the temperature of the solid-liquid transition. One may read the % inhibition as the percentage by which the read-out fell short of the control. Usually inhibition stands for the percentage by which the read-out fell short of the control. The low end stands for a weak effect, the high end for a strong effect. One may read the IC50 as the concentration needed to halve the response being measured.

For one series, the system named is NMDA receptors. As to the kind of experiment: Inhibition of NMDA-evoked increase in intracellular calcium in rat cultured cerebellar granule neurons. The format is cell-based. The note with it: for % inhibition: relative to maximum intracellular calcium stimulated by 100 µM NMDA with 10 µM glycine. As to the method:
Additionally, to evaluate whether the synthesized compounds were able to antagonize the NMDA receptors, we measured their effects on the increase in intracellular calcium evoked by NMDA (100 μM, in the presence of 10 μM of glycine) on rat-cultured cerebellar granule neurons.
The functional assay of antagonist activity at the NMDA receptors was performed using primary cultures of rat cerebellar granule neurons that were prepared according to established protocols. Cells were grown on 10 mm poly-L-lysine coated glass cover slips, and used for the experiments after 6–9 days in vitro. Cells were loaded with 6 µM Fura-2 AM (ThermoFisher Scientific-Molecular Probes) for 30 min. Afterwards, the coverslip was mounted on a quartz cuvette containing a Locke-Hepes buffer using a special holder. Measurements were performed using a PerkinElmer LS-55 fluorescence spectrometer (Waltham, MA, USA) equipped with a fast-filter accessory, under mild agitation and at 37 °C. Analysis of each sample was recorded in real time for 1600 s. After stimulation with NMDA (100 µM, in the presence of 10 µM glycine), increasing cumulative concentrations of the compound to be tested were added. The percentages of inhibition at every tested concentration were analyzed using a non-linear regression curve fitting analysis by using the software GraphPad Prism 5.0 (GraphPad Software Inc., La Jolla, CA, USA).
Table S1. NMDA antagonist activity in rat cerebellar granule cells. […]
aPercentage inhibition values at 100 µM (left) and 300 μM (right) were expressed as percentages, relative to maximum intracellular calcium concentration stimulated by 100 µM NMDA in the presence of 10 µM of glycine. All experiments were repeated at least three times. bIC50 value was obtained from concentration response curves.
A general note: Calcium flux is commonly read through the fluorescence of an indicator in the cells.

Another series addresses T1, human P2X7 receptor (Homo sapiens, UniProt Q99572).
T1 construct: expressed in transfected cells; host or cells: HEK293
T1 sequence (Q99572 1-595): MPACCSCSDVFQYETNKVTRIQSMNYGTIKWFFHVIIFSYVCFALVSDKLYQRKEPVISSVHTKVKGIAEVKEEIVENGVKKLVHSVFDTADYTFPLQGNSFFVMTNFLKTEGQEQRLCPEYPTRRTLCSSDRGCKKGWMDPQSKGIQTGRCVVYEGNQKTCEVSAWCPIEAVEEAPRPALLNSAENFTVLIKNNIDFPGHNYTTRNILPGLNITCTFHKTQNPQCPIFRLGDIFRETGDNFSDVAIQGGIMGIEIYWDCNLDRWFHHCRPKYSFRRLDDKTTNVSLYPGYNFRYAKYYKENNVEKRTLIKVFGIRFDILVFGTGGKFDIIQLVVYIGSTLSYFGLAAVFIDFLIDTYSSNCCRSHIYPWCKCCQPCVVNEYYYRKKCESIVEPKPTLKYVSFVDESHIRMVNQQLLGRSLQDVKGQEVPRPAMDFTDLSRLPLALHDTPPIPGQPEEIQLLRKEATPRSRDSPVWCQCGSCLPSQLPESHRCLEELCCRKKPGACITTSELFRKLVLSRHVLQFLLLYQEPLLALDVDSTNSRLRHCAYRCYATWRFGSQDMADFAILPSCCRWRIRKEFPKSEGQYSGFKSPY
As to the kind of experiment: BzATP-induced ethidium bromide uptake (dye uptake) in hP2X7-expressing HEK293 cells. Type of series: cell-based. Particulars: for inhibition at 1 µM / inhibition at 10 µM: P2X7, relative to maximum ethidium bromide uptake stimulated by BzATP 6 µM; for inhibition at 1 µM: at 1 μM (right value); for inhibition at 10 µM: at 10 µM (left value); for IC50: ethidium bromide accumulation stimulated by BzATP 6 µM, hP2X7-expressing HEK293 cells, from concentration-response curves. The procedure: All new compounds were evaluated for their antagonistic effects on 2’(3’)-O-(4-benzoylbenzoyl)-ATP (BzATP)-induced ethidium bromide uptake in human embryonic kidney 293 (HEK 293) cells, stably expressing the human P2X7 receptor, using P2X7 receptor antagonist AZD9056—AstraZeneca’s clinical drug candidate [46]—as a positive control. […] However, taking into account that we wanted to design a compound endowed with low micromolar inhibitory potencies against both the P2X7 and NMDA receptors, compound 9g suited our purpose.
HEK293 cells stably expressing the P2X7 receptor were maintained in Dulbecco's modified Eagle's medium (DMEM) supplemented with 10% fetal bovine serum (FBS), 2 mM L-glutamine, and antibiotics (50 U/mL penicillin and […] streptomycin) in a humidified 5% CO2 atmosphere at 37 °C. We used Lipofectamine as a transfection reagent with a pcDNA3.1 vector-based plasmid harbouring hP2X7R (Invitrogen, Waltham, MA, USA). After diluting to 2.5 × 10^6 cells/mL, a buffer composed of 10 mM HEPES, 5 mM N-methyl-D-glutamine, 5.6 mM KCl, 10 mM D-glucose, and 0.5 mM CaCl2 (pH 7.4), supplemented with either 280 mM sucrose or 140 mM NaCl and an 80 μL aliquot, was added to each well of 96-well culture plates. The test compounds and 2(3’)-O-(4-benzoylbenzoyl)-ATP (BzATP) were then added, and the cells were incubated for 2 h in a humidified 5% CO2 atmosphere at 37 °C. After incubation, a Bio-Tek FL600 fluorescence plate reader (Winooski, VT, USA) was used to measure the […] at an excitation wavelength of 530 nm and an emission wavelength of 590 nm. The inhibition (percent) of ethidium ion uptake was expressed as a relative value of the maximum accumulation when stimulated with BzATP only. To calculate IC50 values, we calculated a series of dose–response data using nonlinear regression analysis (i.e., percentage accumulation of ethidium bromide vs compound concentration). The concentration of ethidium bromide was 0.1 mM.

Series [1] relates to hP2X7. On the set-up: method as in PMID 18438986. The note with it: read-out: P2X7R antagonist activity IC50; cited from earlier work.
Series [2] relates to hP2X7. On the set-up: method as in PMID 22400713. Particulars: read-out: P2X7R antagonist IC50; cited from earlier work.
The subject of the next series is NMDAR. Particulars: cited from earlier work.

`NC12CC3CC(C1)CC(C(=O)NNc1c(Cl)cncc1Cl)(C3)C2` [Compound 9e, 3-Amino-N'-(3,5-dichloropyridin-4-yl)adamantane-1-carbohydrazide]: the melting point was 191 to 192 °C. For the same compound, the “% inhibition” value in the series with NMDA receptors (at 100 µM (left value)) was 6%. The “% inhibition” value in the series on NMDA receptors (at 300 μM (right value)) turned out to be 16%. On human P2X7 receptor, this compound showed an inhibition at 1 µM of 27% and an inhibition at 10 µM of 53%.

In the case of `NC12CC3CC(C1)CC(C(=O)NNc1ccc(C(F)(F)F)cc1Cl)(C3)C2` [Compound 9d, 3-Amino-N'-[2-chloro-4-(trifluoromethyl)phenyl]adamantane-1-carbohydrazide], the melting point was 185 to 186 °C. Also, the “% inhibition” value in the series on NMDA receptors (at 100 µM (left value)) came to 20%. Also, at human P2X7 receptor, testing at 1 µM gave an inhibition of 21% and 10 µM produced 24% inhibition.

The compound `NC12CC3CC(C1)CC(C(=O)NNc1cccc(Cl)c1Cl)(C3)C2` [Compound 9c, 3-Amino-N'-(2,3-dichlorophenyl)adamantane-1-carbohydrazide] came in with a melting point of 215 to 219 °C. In the series on NMDA receptors (at 100 µM (left value)), the “% inhibition” value was determined as 23%. In addition, the “% inhibition” value in the series with NMDA receptors (at 300 μM (right value)) is on record as 30%. At human P2X7 receptor, this compound returned an inhibition at 1 µM of 17% and an inhibition at 10 µM of 42%.

For `O=C(NCC12CC3CC(CC(C3)C1)C2)c1cc(CCCNCCCO)ccc1Cl` [AZD9056, reference compound], the IC50 on human P2X7 receptor was 0.0041 ± 0.0007 µM.

`NC12CC3CC(C1)CC(C(=O)NCc1ccccc1Cl)(C3)C2` [Compound 2, 3-Amino-N-(2-chlorobenzyl)adamantane-1-carboxamide]: the melting point was 186 to 189 °C. Also, the “% inhibition” value with NMDA receptors (at 100 µM (left value)) was 18%. Further, the “% inhibition” value with NMDA receptors (at 300 μM (right value)) is on record as 30%.

As for `O=C(NNc1ccccc1Cl)C12CC3CC(CC(C3)C1)C2` [Compound 1a], the 50% inhibitory concentration (IC50) with hP2X7 [1] was 0.0116 ± 0.002 µM.

For the compound `O=C(NNc1ccccc1Cl)C12CC3CC(CC(O)(C3)C1)C2` [Compound 1b], the IC50 with hP2X7 [1] is 0.275 ± 0.05 µM.

As to `NC12CC3CC(C1)CC(C(=O)NNc1cccc(Cl)c1F)(C3)C2` [Compound 9f, 3-Amino-N'-(3-chloro-2-fluorophenyl)adamantane-1-carbohydrazide], the melting point fell in the range of 200 to 202 °C. Also, the “% inhibition” value in the series on NMDA receptors (at 100 µM (left value)) stood at 11%. For the same compound, the “% inhibition” value in the series on NMDA receptors (at 300 μM (right value)) amounted to 18%. At human P2X7 receptor, this compound registered an inhibition at 1 µM of 17% and an inhibition at 10 µM of 15%.

As for `CC12CC3CC(C)(C1)CC(C(=O)NNc1c(Cl)cncc1Cl)(C3)C2` [Compound 3], in the series with hP2X7 [2], the IC50 was 0.013 ± 0.001 µM.

Compound `CC12CC3(C)CC(N)(C1)CC(C(=O)NNc1c(Cl)cncc1Cl)(C2)C3` [Compound 15a, 3-Amino-N'-(3,5-dichloropyridin-4-yl)-5,7-dimethyladamantane-1-carbohydrazide] displayed a melting point of 300 to 302 °C. In addition, the “% inhibition” value in the series with NMDA receptors (at 100 µM (left value)) came out at 20%. Besides, the “% inhibition” value with NMDA receptors (at 300 μM (right value)) is listed as 31%. Also, the “NMDA receptor inhibition (in words)” value in the series with NMDA receptors (rat cerebellar granule neurons) is “unable to significantly inhibit the NMDA receptor even at millimolar concentrations”. This compound yielded an IC50 on human P2X7 receptor of 9.9 ± 0.7 µM.

`NC12CC3CC(C1)CC(C(=O)NNc1ccccc1C(F)(F)F)(C3)C2` [Compound 9a, 3-Amino-N'-[2-(trifluoromethyl)phenyl]adamantane-1-carbohydrazide]: the melting point fell in the range of 213 to 216 °C. In addition, the “% inhibition” value in the series with NMDA receptors (at 100 µM (left value)) was determined as 5%. Besides, in the series on NMDA receptors (at 300 μM (right value)), the “% inhibition” value came out at 14%. In addition, at human P2X7 receptor, testing at 1 µM gave an inhibition of 37% and the inhibition at 10 µM turned out to be 48%.

The compound `NC12CC3CC(C1)CC(C(=O)NNc1c(Cl)cccc1Cl)(C3)C2` [Compound 9b, 3-Amino-N'-(2,6-dichlorophenyl)adamantane-1-carbohydrazide] registered a melting point of 153 to 156 °C. In addition, the “% inhibition” value with NMDA receptors (at 100 µM (left value)) is reported as 17%. Also, the “% inhibition” value in the series with NMDA receptors (at 300 μM (right value)) stood at 38%. On human P2X7 receptor, this compound registered an inhibition at 1 µM of 16% and an inhibition at 10 µM of 23%.

As to `CC12CC3(C)CC(N)(C1)CC(C(=O)NNc1ccccc1Cl)(C2)C3` [Compound 15b, 3-Amino-N'-(2-chlorophenyl)-5,7-dimethyladamantane-1-carbohydrazide], the melting point was in the range of 280 to 282 °C. The “% inhibition” value in the series with NMDA receptors (at 100 µM (left value)) is listed as 7%. Moreover, in the series on NMDA receptors (at 300 μM (right value)), the “% inhibition” value came to 8%. The “NMDA receptor inhibition (in words)” value in the series with NMDA receptors (rat cerebellar granule neurons) is “unable to significantly inhibit the NMDA receptor even at millimolar concentrations”. This compound showed an IC50 at human P2X7 receptor of 16.1 ± 1.6 µM.

Regarding `CC12CC3CC(C)(C1)CC(N)(C3)C2` [memantine], in the series on NMDAR, the “fold more potent as an NMDA inhibitor than amantadine” value was 60 fold.

As to `NC12CC3CC(CC(C3)C1)C2` [amantadine], the IC50 with NMDAR (amantadine, read-out: NMDAR antagonist IC50) is 92 ± 29 µM.

`NC12CC3CC(C1)CC(C(=O)NNc1ccccc1Cl)(C3)C2` [Compound 9g, 3-Amino-N'-(2-chlorophenyl)adamantane-1-carbohydrazide] had a melting point of 220 to 222 °C. Moreover, the IC50 with NMDA receptors (NMDA 100 μM with 10 μM glycine, rat cerebellar granule neurons, read-out: IC50 (NMDA receptor)) was 468 ± 23 µM. The “NMDA receptor inhibition (in words)” value in the series on NMDA receptors (rat cerebellar granule neurons) is on record as “some activity as an NMDA receptor antagonist”. This compound also returned an IC50 on human P2X7 receptor of 6 ± 0.6 µM.
